Measurements published in patent publication US20210015772A1, “PHARMACEUTICAL COMPOSITION FOR PREVENTION OR TREATMENT OF FIBROSIS” (CRYSTALGENOMICS, INC., priority 2018, published 2021).

Tests used:
Type in all cases: in vivo, C57BL/6 mice
collagen [1] = experiment: Sircol assay of bronchoalveolar lavage fluid in bleomycin-induced mouse model; details: 15, 30, 60 mg/kg intraperitoneally for 2 weeks after 2 mg/kg bleomycin into the airway
Experimental: (§1) As a bleomycin model, 7-week old female C57BL/6 mice were used, and the mice were divided into a total of 5 groups, a bleomycin-administered group, CG200745-administered groups in which CG200745 is administered at 15, 30, 60 mg/kg after administration of bleomycin, and a control group to perform the experiment. Airway incision was performed on the mice and 2 mg/kg bleomycin was injected into the airway in a volume of 50 μl. After injection, the incision site was closed with 5-0 nylon. After the injection of bleomycin, the drug was administered intraperitoneally for a total of 2 weeks.
(§2) After two weeks of drug administration, the skin of the airway of the mouse was incised to expose the airway and washed with 800 μl of PBS into the trachea and then 500 μl of the solution was recovered therefrom to obtain bronchoalveolar lavage fluid. The bronchoalveolar lavage fluid was centrifuged at 4° C. and 1,200 rpm for 5 minutes to obtain supernatant. 50 μl of the bronchoalveolar lavage fluid and 1 ml of sircol dye reagent were mixed for 30 minutes. After centrifugation at 4° C. and 12,000 rpm for 10 minutes, the supernatant was discarded, 750 μl of Acid-salt wash reagent was added for washing, and then centrifugation was performed at 12,000 rpm for 10 minutes. After discarding the supernatant, 1 ml of Alkali reagent was added and absorbance was measured at 555 nm.

collagen [2] = experiment: Sircol assay of bronchoalveolar lavage fluid in polyhexamethylene guanidine-induced pulmonary fibrosis mouse model; details: 15, 30, 60 mg/kg intraperitoneally for 2 weeks after 1 mg/kg polyhexamethylene guanidine into the airway
Experimental: as §1, with “a polyhexamethylene guanidine (PHMG)” for “a bleomycin”, “a polyhexamethylene guanidine-administered” for “a bleomycin-administered”, “of polyhexamethylene guanidine,” for “of bleomycin,”, “and 1” for “and 2”, “mg/kg polyhexamethylene guanidine” for “mg/kg bleomycin”
as §2, with “After centrifugation at 4° C. and 12,000 rpm for 10 minutes, the supernatant was discarded, 750 μl of Acid-salt wash reagent was added for washing, and then centrifugation was performed at 12,000 rpm for 10 minutes.” left out

[3] = tested on: α-SMA (alpha-smooth muscle actin); experiment: Expression level of fibrosis marker α-SMA by real-time PCR in kidney of unilateral ureteral obstruction mouse model; details: 30 mg/kg intake, kidney with renal failure induced through ureteral obstruction, compared to the solvent control group
Experimental: 8-week old female C57BL/6 mice were used. After opening the abdomen of C57BL/6 mice, one of two ureters was closed with 6-0 cotton yarn. After closing the ureter, the abdomen was sutured and disinfected. Immediately after surgery, the host mice were classified into the solvent control group which is the non-intake group, and the CG200745 intake group in which CG200745 dissolved in distilled water was consumed (30 mg/kg/day). On the 7th day after surgery, the solvent control group and the CG200745 intake group mice were euthanized, and then normal kidney and the kidney with acute renal failure induced after ureteral obstruction were extracted. […]
The kidney cortex was homogenized with Trizol solution (Invitrogen, Carlsbad, Calif.). […] The washed RNA was dissolved in distilled water and then the concentration was determined by measuring absorbance at 260 nm (Ultraspec 2000; Pharmacia Biotech, Cambridge, UK). cDNA was produced by reverse transcription of […] RNA using oligo(dT) primer and superscript reverse transcriptase II (Invitrogen, Carlsbad, Calif.). The produced cDNA was quantified by measuring with SYBR Green using Smart Cycler II System (Cepheid, Sunnyvale, Calif.). […]

[4] = tested on: α-SMA, Collagen I, PAI-1, Acetylated H3; experiment: Western blot of fibrosis markers and Acetylated H3 in lung tissue of bleomycin-induced mouse model; details: 15, 30, 60 mg/kg intraperitoneally for 2 weeks, western blot densitometry
Experimental: as §1
(§3) Western blot was performed to identify makers of pulmonary fibrosis (α-SMA, collagen I, PAI-1, E-cadherin, N-cadherin) and Acetylated H3 in tissues. The mice were sacrificed, and then subjected to chest opening and the lungs were removed and stored frozen for a day, and the mouse tissues were ground to prepare a protein sample. It was subjected to SDS-PAGE and the fractionated protein sample was transferred to PVDF (polyvinylidene difluoride) membrane. […]
(§4) With the average for two controls being 1, the relative value was recorded to conduct densitometry analysis.

[5] = tested on: α-SMA, Collagen I, PAI-1, Acetylated H3; experiment: Western blot of fibrosis markers and Acetylated H3 in lung tissue of polyhexamethylene guanidine-induced pulmonary fibrosis mouse model; details: PHMG model, 15, 30, 60 mg/kg intraperitoneally for 2 weeks, western blot densitometry
Experimental: as §1, with “a polyhexamethylene guanidine (PHMG)” for “a bleomycin”, “a polyhexamethylene guanidine-administered” for “a bleomycin-administered”, “of polyhexamethylene guanidine,” for “of bleomycin,”, “and 1” for “and 2”, “mg/kg polyhexamethylene guanidine” for “mg/kg bleomycin”
as §3, §4

[6] = tested on: bleomycin-induced pulmonary fibrosis; experiment: Histopathological analysis of lung (H&E, Masson's trichrome) in bleomycin-induced mouse model; details: 15, 30, 60 mg/kg intraperitoneally for 2 weeks after 2 mg/kg bleomycin into the airway
Experimental: (§5) As a bleomycin model, 7-week old female C57BL/6 mice were used, and the mice were divided into a total of 5 groups, a bleomycin-administered group, CG200745-administered groups in which CG200745 is administered at 15, 30, 60 mg/kg after administration of bleomycin, and a control group to perform the experiment. Airway incision was performed on the mice and 2 mg/kg bleomycin was injected into the airway in a volume of 50 μl. After injection, the incision site was closed with 5-0 nylon. After the injection of bleomycin, the drug was administered intraperitoneally for a total of 2 weeks. The mice were sacrificed and subjected to chest opening and then the lungs were removed and fixed with 4% paraformaldehyde. They were fixed by immersing in 4% paraformaldehyde for 48 hours at 4° C., and then a paraffin block was prepared. 4 μm of microsection was made from the paraffin-embedded tissue and attached to a slide. Hemotoxin and eosin staining and Masson's trichrome staining were performed. For hemotoxin and eosin staining, the slide was immersed in xylene twice for 5 minutes each and in 100%, 95% and 70% ethanol for 2 minutes each, and washed with running distilled water. After washing, the slide was immersed in hematoxylin for 1 minute, washed several times with running distilled water, then immersed in eosin for 30 seconds and washed several times with running distilled water. […]

[7] = tested on: polyhexamethylene guanidine-induced pulmonary fibrosis; experiment: Histopathological analysis of lung (H&E, Masson's trichrome) in polyhexamethylene guanidine-induced pulmonary fibrosis mouse model; details: 15, 30, 60 mg/kg intraperitoneally for 2 weeks after 1 mg/kg polyhexamethylene guanidine into the airway
Experimental: as §5, with “a polyhexamethylene guanidine (PHMG)” for “a bleomycin”, “a polyhexamethylene guanidine-administered” for “a bleomycin-administered”, “of polyhexamethylene guanidine,” for “of bleomycin,”, “and 1” for “and 2”, “mg/kg polyhexamethylene guanidine” for “mg/kg bleomycin”, “water.” for “water. After washing, the slide was immersed in hematoxylin for 1 minute, washed several times with running distilled water, then immersed in eosin for 30 seconds and washed several times with running distilled water.”

[8] = tested on: kidney with acute renal failure induced after ureteral obstruction (renal fibrosis); experiment: Histopathology analysis (hematoxylin and eosin) of kidney in unilateral ureteral obstruction (renal failure) mouse model; details: 30 mg/kg/day intake in distilled water, day 7 after ureteral obstruction, compared to the solvent control group
Experimental: 8-week old female C57BL/6 mice were used. After opening the abdomen of C57BL/6 mice, one of two ureters was closed with 6-0 cotton yarn. After closing the ureter, the abdomen was sutured and disinfected. Immediately after surgery, the host mice were classified into the solvent control group which is the non-intake group, and the CG200745 intake group in which CG200745 dissolved in distilled water was consumed (30 mg/kg/day). On the 7th day after surgery, the solvent control group and the CG200745 intake group mice were euthanized, and then normal kidney and the kidney with acute renal failure induced after ureteral obstruction were extracted. The extracted normal kidney and kidney with acute renal failure induced were fixed with 4% paraformaldehyde, and then covered with paraffin to prepare a tissue section with a 3 μm thickness. Hematoxylin and eosin staining was conducted on the completed tissue sections to perform a histopathological analysis of renal tissues. For hematoxylin staining, kidney tissue sections were stained with Gill's hematoxylin for 5 minutes, washed with tap water, and then treated with 95% ethanol. Eosin staining was performed by staining with eosin and phloxine for 1 minute. The tissue sections were then dehydrated with ethanol and xylene and fixed with Canada balsam.

## CN(C)CCCNC(=O)/C(=C/CCCCC(=O)NO)COc1cccc2ccccc12 [CG200745, (E)-N1-(3-(dimethylamino)propyl)-N8-hydroxy-2-((naphthalene-1-yloxy)methyl)oct-2-enediamide]
Collagen [1]
  collagen in bronchoalveolar lavage fluid increased by bleomycin treatment (sircol assay): significantly decreased in CG200745 concentration-dependent manner
Collagen [2]
  collagen in bronchoalveolar lavage fluid increased by polyhexamethylene guanidine (sircol assay): significantly decreased in CG200745 concentration-dependent manner
[3]
  reduction of α-SMA expression (real-time PCR): ≥ 50%
[4]; lung tissue
  expression levels of fibrosis markers (α-SMA, Collagen I, PAI-1) increased by bleomycin treatment: reduced in CG200745 concentration-dependent manner
[4]
  level of histone acetylation (Acetylated H3) in lung tissue: increased
[5]; lung tissue
  expression levels of fibrosis markers (α-SMA, Collagen I, PAI-1) increased by polyhexamethylene guanidine treatment: reduced in CG200745 concentration-dependent manner
[5]
  level of histone acetylation (Acetylated H3) in lung tissue: increased
[6]
  degree of fibrosis and collagen accumulation increased by bleomycin treatment (lung histopathology): significantly decreased in CG200745 concentration-dependent manner and normalized
[7]
  polyhexamethylene guanidine-induced pulmonary fibrosis (lung histopathology): suppressed in CG200745 concentration-dependent manner and normalized
[8]
  fibrosis progression in the kidney (histopathology): inhibited
